Counter-ions that a name gives are not always drawn.
target: T1, β2-receptor subtype (rat lung membranes, 25% of β1, 75% of β2) (Rattus norvegicus, UniProt P10608); test: Inhibition of specific 3H-dihydroalprenolol binding in rat lung membranes; details: 1 nM 3H-dihydroalprenolol, confidence limits in brackets, read-out: Lung Ki (competition constant)
T1 construct: rat lung membranes; from tissue; host or cells: rat lung membranes
Description: Two experiments were carried out with three batches.

T1 sequence (P10608 whole entry): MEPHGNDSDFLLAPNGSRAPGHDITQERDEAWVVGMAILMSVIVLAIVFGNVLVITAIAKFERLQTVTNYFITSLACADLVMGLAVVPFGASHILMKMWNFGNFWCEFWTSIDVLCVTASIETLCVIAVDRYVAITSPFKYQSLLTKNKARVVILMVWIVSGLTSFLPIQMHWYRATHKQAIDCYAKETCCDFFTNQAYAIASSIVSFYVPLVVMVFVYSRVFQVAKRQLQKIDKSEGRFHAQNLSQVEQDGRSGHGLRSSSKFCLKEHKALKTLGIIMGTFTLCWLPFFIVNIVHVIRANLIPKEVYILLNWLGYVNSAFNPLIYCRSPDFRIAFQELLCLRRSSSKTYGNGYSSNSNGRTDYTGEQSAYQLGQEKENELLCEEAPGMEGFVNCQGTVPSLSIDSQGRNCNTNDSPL

| SMILES | Ki |
| --- | --- |
| CCCNCC(O)COc1ccccc1C(=O)CCc1ccccc1 (racemic) [(R,S)-propafenone, 2'-(2-hydroxy-3-propylaminopropoxy)-3-phenylpropiophenone, reference compound] | 32 nM |
| CCCNC[C@@H](O)COc1ccccc1C(=O)CCc1ccccc1 [(R)-propafenone, (R)-propafenone . HCl] | 257 nM |
| CCCNC[C@H](O)COc1ccccc1C(=O)CCc1ccccc1 [(S)-propafenone, (S)-propafenone . HCl] | 14 nM |

test system: aconitine-induced arrhythmia; test: Antiarrhythmic action in aconitine-induced arrhythmia of the rat; format: in vivo; details: iv, 5 min, read-out: Antiarrhythmic effect on aconitine-induced arrhythmias ED 50%
Description: 2. Determination of the antiarrhythmic action in aconitine-induced arrhythmia of the rat
The experimental animals used were male Sprague-Dawley rats weighing from 180 to 300 g. Anaesthesia was effected intraperitoneally with 100 mg/kg of thiobutabarbital. To induce arrhythmias, aconitine was infused at a rate of 5 μg per kg per minute. The test substances were administered intravenously 2 minutes before the beginning of the aconitine infusion. The parameter measured was the duration of the aconitine infusion when the first arrhythmias (loss of P, ventricular extrasystoles and tachycardias) appeared in the ECG of the animals. In untreated animals, the aconitine-induced arrhythmia occurred after 3.3±0.11 minutes (n=120). The ED 50% was determined from the linear relationship between log dose (mg/kg) of the test substances and the relative prolongation of aconitine infusion duration (Δ%).

| SMILES | ED50 |
| --- | --- |
| CCCNCC(O)COc1ccccc1C(=O)CCc1ccccc1 (racemic) [(R,S)-propafenone, 2'-(2-hydroxy-3-propylaminopropoxy)-3-phenylpropiophenone, reference compound] | 0.724 mg/kg |
| CCCNC[C@@H](O)COc1ccccc1C(=O)CCc1ccccc1 [(R)-propafenone, (R)-propafenone . HCl] | 0.801 mg/kg |
| CCCNC[C@H](O)COc1ccccc1C(=O)CCc1ccccc1 [(S)-propafenone, (S)-propafenone . HCl] | 0.676 mg/kg |

Source: US4945114A, “Therapeutic agents containing enantiomers of propafenone” (priority 1987, dated 1990)
